Values of other authors as cited in patent US7198796B2, “Antifungal parenteral products” (Vicuron Pharmaceuticals Inc., priority 2002, dated 2007).
*1 amine or outer side, *2 acyl side, *3 side chain or, on linkers, in order; H or OH if unused. Where a SMILES comes first, the peptide text is derived from it. Bridges are numbered along the chain shown (N, C = ends). [ ]: non-standard residue; d: D form. The star is where a group is joined. ξ: configuration not given here. pTerphenylCO(4''-OnC5H11) = CCCCCOc1ccc(-c2ccc(-c3ccc(C(=O)*)cc3)cc2)cc1; ξOrn(4R-OH,5R-OH) = O=C(C(C[C@@H](O)[C@@H](O)N[*:3])N[*:1])[*:2]; hTyr(3S-OH,4S-OH) = N[C@H](C(=O)O)[C@H](O)[C@@H](O)c1ccc(O)cc1; Pro(3S-OH,4S-Me) = C[C@H]1CN[C@H](C(=O)O)[C@H]1O; Hyp = O=C(O)[C@@H]1C[C@@H](O)CN1

For `CCCCCOc1ccc(-c2ccc(-c3ccc(C(=O)NC4C[C@@H](O)[C@@H](O)NC(=O)[C@@H]5[C@@H](O)[C@@H](C)CN5C(=O)[C@H]([C@@H](C)O)NC(=O)[C@H]([C@H](O)[C@@H](O)c5ccc(O)cc5)NC(=O)[C@@H]5C[C@@H](O)CN5C(=O)[C@H]([C@@H](C)O)NC4=O)cc3)cc2)cc1` (stereo partly drawn) [anidulafungin, 1-[(4R,5R)-4,5-Dihydroxy-N(2)-[[4″-(pentyloxy)[1,1′:4′,1″-terphenyl]-4-yl]carbonyl]-L-ornithine]echinocandin B] ({pTerphenylCO(4''-OnC5H11)}-[ξOrn(4R-OH,5R-OH)]T[Hyp][hTyr(3S-OH,4S-OH)]T[Pro(3S-OH,4S-Me)]; lactam 1-C), the water solubility is listed as “less than 0.1 mg/ml”.
